Holding throughout (assay type): cell-based
Assay [1] addresses T1, 5-HT2A receptor (Homo sapiens, UniProt P28223).
T1 construct: host or cells: HEK293
The experiment in a line: FLIPR Ca2+ flux functional assay, 5-HT2A agonist activity. On the procedure:
(§1) Functional Assays 5-HT2A, 5-HT2B and 5-HT2C Receptors
(§2) Activity at 5-HT2A, 5-HT2B and 5-HT2C receptors was determined using a FLIPR Ca2+ flux assay at WuXi AppTec Co. Ltd. (Hong Kong) Discovery Biology Unit according to their standard protocols. Briefly, stably transfected cells expressing the receptor of interest (HEK293 for 5-HT2A and 5-HT2C; CHO-K1 for 5-HT2B) were grown and plated in a 384 well plate and incubated at 37° C. and 5% 002 overnight. A 250 mM stock solution of probenecid in FLIPR calcium assay buffer (10 mL) was freshly prepared and combined with a fluorescent dye (Fluo-4 Direct) to give a final assay concentration of 2.5 mM. Reference compounds were 4-fold serially diluted and the screening compounds were 3-fold serially diluted in 100% DMSO for 10 points using Agilent Bravo, and 750 nL was added to a 384 well compound plate using Echo along with 30 μL assay buffer. The fluorescent dye was then added to the assay plate along with assay buffer to a final volume of 40 μL. The cell plate was incubated for […] at 37° C. and 5% 002 and placed into the FLIPR Tetra along with the compound plate. 10 μL of references and compounds were then transferred from the compound plate into the cell plate and the fluorescent signal was read.

In assay [2] the target is T2, 5-HT2B receptor (Homo sapiens, UniProt P41595).
T2 construct: host or cells: CHO-K1
T2 sequence (P41595 whole entry): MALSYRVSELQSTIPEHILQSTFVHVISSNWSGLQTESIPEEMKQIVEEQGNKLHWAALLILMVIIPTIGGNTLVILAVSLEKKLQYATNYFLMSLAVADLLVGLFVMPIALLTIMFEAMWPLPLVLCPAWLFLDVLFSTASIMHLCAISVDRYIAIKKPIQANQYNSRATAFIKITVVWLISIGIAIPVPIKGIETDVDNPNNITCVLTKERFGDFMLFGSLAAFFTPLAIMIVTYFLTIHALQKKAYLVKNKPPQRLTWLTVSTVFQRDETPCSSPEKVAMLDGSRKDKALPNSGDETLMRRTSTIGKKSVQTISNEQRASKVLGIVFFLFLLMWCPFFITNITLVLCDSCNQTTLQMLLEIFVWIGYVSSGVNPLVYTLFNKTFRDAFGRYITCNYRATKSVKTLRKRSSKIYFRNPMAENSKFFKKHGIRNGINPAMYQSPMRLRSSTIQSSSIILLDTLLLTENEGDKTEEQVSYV
The experiment in a line: FLIPR Ca2+ flux functional assay, 5-HT2B agonist activity. On the procedure: as §1, §2
(In general: Calcium flux is commonly read through the fluorescence of an indicator in the cells.)

The target of assay [3] is T3, 5-HT2C receptor (Homo sapiens, UniProt P28335).
T3 construct: host or cells: HEK293
T3 sequence (P28335 33-458): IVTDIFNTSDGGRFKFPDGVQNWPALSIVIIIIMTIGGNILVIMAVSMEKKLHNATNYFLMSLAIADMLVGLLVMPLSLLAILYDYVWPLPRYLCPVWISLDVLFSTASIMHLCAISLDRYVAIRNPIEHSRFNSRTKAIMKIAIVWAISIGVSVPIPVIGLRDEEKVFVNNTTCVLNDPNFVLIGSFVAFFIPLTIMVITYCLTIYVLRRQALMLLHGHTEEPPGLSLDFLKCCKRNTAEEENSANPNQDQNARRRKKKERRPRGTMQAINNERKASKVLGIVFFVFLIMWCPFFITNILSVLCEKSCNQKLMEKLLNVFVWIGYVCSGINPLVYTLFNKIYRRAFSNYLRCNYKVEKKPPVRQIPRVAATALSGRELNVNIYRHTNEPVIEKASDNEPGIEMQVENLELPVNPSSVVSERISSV
The experiment in a line: FLIPR Ca2+ flux functional assay, 5-HT2C agonist activity. On the procedure: as §1, §2

Setting [4] is: agonist activity, Ca2+ flux, stably transfected HEK293 cells.
Where [5] appears, read: agonist activity, Ca2+ flux, stably transfected CHO-K1 cells.

Like-named read-outs stand apart in the source and are kept apart here.

T1 sequence (P28223 whole entry): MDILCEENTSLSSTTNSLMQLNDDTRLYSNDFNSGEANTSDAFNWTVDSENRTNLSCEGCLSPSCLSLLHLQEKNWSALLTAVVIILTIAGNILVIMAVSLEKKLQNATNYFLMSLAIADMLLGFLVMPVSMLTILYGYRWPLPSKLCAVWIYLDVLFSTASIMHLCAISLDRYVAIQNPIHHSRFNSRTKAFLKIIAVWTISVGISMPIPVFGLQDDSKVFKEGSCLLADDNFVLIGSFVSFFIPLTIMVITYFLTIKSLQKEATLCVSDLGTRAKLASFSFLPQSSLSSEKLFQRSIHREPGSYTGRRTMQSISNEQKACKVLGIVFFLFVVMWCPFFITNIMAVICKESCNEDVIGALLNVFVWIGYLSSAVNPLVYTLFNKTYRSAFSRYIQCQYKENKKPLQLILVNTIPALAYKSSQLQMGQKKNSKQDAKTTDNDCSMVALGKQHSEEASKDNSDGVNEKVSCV

One may read the EC50 as the concentration that produces a half-maximal response. The Emax is the size of the effect at its maximum, as opposed to the concentration needed. For `CCN(CCc1c[nH]c2cccc(O)c12)CC(C)C` [Compound P-140, 3-(2-(ethyl(isobutyl)amino)ethyl)-1H-indol-4-ol], the figures for the EC50 in assay [1], in assay [2] and in assay [3] were 27.7 nM, greater than 10000 nM and 992 nM, respectively. Also, the Emax in assay [1] (setting [4]) came out at 97.5%; in assay [2] (setting [5]) it was 17.5%; in assay [3] (setting [4]), 95.4%.

On to `CCCN(CCc1c[nH]c2cccc(O)c12)C(C)C` [Compound P-141, 3-(2-(isopropyl(propyl)amino)ethyl)-1H-indol-4-ol], for which the EC50 in assay [1] was found to be 13.8 nM; in assay [2] it was 330 nM; in assay [3], 422 nM. Besides, the Emax came to 105% in assay [1] (setting [4]), 62.2% in assay [2] (setting [5]) and 92% in assay [3] (setting [4]).

For `COc1ccc2[nH]cc(CCN(C)C3CC3)c2c1` [Compound P-162, N-(2-(5-methoxy-1H-indol-3-yl)ethyl)-N-methylcyclopropanamine], the EC50 in assay [1] was 4.83 nM; in assay [2], no less than 10000 nM; in assay [3] it was 10.6 nM. Moreover, the Emax was 95.6% in assay [1] (setting [4]), 12% in assay [2] (setting [5]) and 89.2% in assay [3] (setting [4]).

On to `COc1ccc2[nH]cc(CCN(C)C3CCC3)c2c1` [Compound P-163, N-(2-(5-methoxy-1H-indol-3-yl)ethyl)-N-methylcyclobutanamine], for which the EC50 was 25.4 nM in assay [1], no less than 10000 nM in assay [2] and 128 nM in assay [3]. Besides, the Emax in assay [1] (setting [4]) was determined as 90.5%; in assay [2] (setting [5]), 2.29%; in assay [3] (setting [4]), 75.9%.

As to `COc1ccc2[nH]cc(CCN(C)C3COC3)c2c1` [Compound P-164, N-(2-(5-methoxy-1H-indol-3-yl)ethyl)-N-methyloxetan-3-amine], the Emax is 57.5% in assay [1] (setting [4]), 1.26% in assay [2] (setting [5]) and 59.9% in assay [3] (setting [4]). The EC50 in assay [1] (agonist activity, Ca2+ flux, stably transfected HEK293 cells, read-out: 5-HT2A EC50) was 671 nM; in assay [2] (agonist activity, Ca2+ flux, stably transfected CHO-K1 cells, read-out: 5-HT2B EC50) it was no less than 10000 nM; in assay [3] (agonist activity, Ca2+ flux, stably transfected HEK293 cells, read-out: 5-HT2c EC50), 6280 nM.

The record behind these values is patent publication US20250074873A1, “COMPOUNDS” (Psylo Pty Ltd, priority 2021, published 2025).
